Test results reported in ChEMBL document CHEMBL2331254, “Pyrrolopyrimidine inhibitors of DNA gyrase B (GyrB) and topoisomerase IV (ParE), Part II: development of inhibitors with broad spectrum, Gram-negative antibacterial activity” (Bioorg Med Chem Lett, 2013).
Converted amounts (≈) assume the structure as drawn.

Key:
[1] = Inhibition of Escherichia coli parE assessed as release of inorganic phosphate from ATP hydrolysis after 30 mins by coupled spectrophotometric assay
[2] = Inhibition of Escherichia coli GyrB assessed as release of inorganic phosphate from ATP hydrolysis after 30 mins by coupled spectrophotometric assay
Pseudomonas aeruginosa = test: Antibacterial activity against Pseudomonas aeruginosa PAO1 by broth microdilution method; format: functional
Acinetobacter baumannii = test: Antibacterial activity against Acinetobacter baumannii ATCC 19606 by broth microdilution method; format: functional; settings: ATCC 19606 = CIP 70.34 = JCM 6841
Klebsiella pneumoniae = test: Antibacterial activity against Klebsiella pneumoniae ATCC 700603 by broth microdilution method; format: functional
Escherichia coli [3] = test: Antibacterial activity against wild type Escherichia coli ATCC 25922 by broth microdilution method in presence of 20% mouse serum; format: functional
Haemophilus influenzae = test: Antibacterial activity against Haemophilus influenzae ATCC 49247 by broth microdilution method; format: functional
Streptococcus pneumoniae = test: Antibacterial activity against Streptococcus pneumoniae ATCC 51916 by broth microdilution method; format: functional
Staphylococcus aureus [4] = test: Antibacterial activity against Staphylococcus aureus ATCC 13709 by broth microdilution method in presence of 20% mouse serum; format: functional
[5] = Inhibition of Francisella tularensis parE assessed as release of inorganic phosphate from ATP hydrolysis after 30 mins by coupled spectrophotometric assay
[6] = Inhibition of Francisella tularensis GyrB assessed as release of inorganic phosphate from ATP hydrolysis after 30 mins by coupled spectrophotometric assay
Escherichia coli [7] = test: Antibacterial activity against Escherichia coli BW25113 harboring deltatolC by broth microdilution method; format: functional
Escherichia coli [8] = test: Antibacterial activity against permeabilized Escherichia coli IBAS849 by broth microdilution method; format: functional
Escherichia coli [9] = test: Antibacterial activity against wild type Escherichia coli ATCC 25922 by broth microdilution method; format: functional
Staphylococcus aureus [10] = test: Antibacterial activity against Staphylococcus aureus ATCC 13709 by broth microdilution method; format: functional

Row | Compound | Ki [1] [nM] | Ki [2] [nM] | MIC (Pseudomonas aeruginosa) [µg/mL] | MIC (Acinetobacter baumannii) [µg/mL] | MIC (Klebsiella pneumoniae) [µg/mL] | MIC (Escherichia coli [3]) [µg/mL] | MIC (Haemophilus influenzae) [µg/mL] | MIC (Streptococcus pneumoniae) [µg/mL] | MIC (Staphylococcus aureus [4]) [µg/mL] | Ki [5] [nM] | Ki [6] [nM] | MIC (Escherichia coli [7]) [µg/mL] | MIC (Escherichia coli [8]) [µg/mL] | MIC (Escherichia coli [9]) [µg/mL] | MIC (Staphylococcus aureus [10]) [µg/mL]
1 | CCc1[nH]c2nc(Oc3cncnc3)nc(N3C[C@@H]4[C@@H](N)[C@@H]4C3)c2c1Cl | 3.4 | 0.4 | 32 (≈ 86.1 µM) | 16 (≈ 43 µM) | 64 (≈ 172 µM) | 2 | 4 (≈ 10.8 µM) | 2 (≈ 5.38 µM) | 2 | 1.8 | < 0.3 | 2 (≈ 5.38 µM) | 1 (≈ 2.69 µM) | 4 (≈ 10.8 µM) | 1 (≈ 2.69 µM)
2 | CCc1[nH]c2nc(Sc3cnc4cccnc4c3)nc(N3C[C@@H]4[C@@H](N)[C@@H]4C3)c2c1Cl | < 1 | < 0.3 | 8 (≈ 18.3 µM) | 8 (≈ 18.3 µM) | > 64 | 8 | 4 (≈ 9.13 µM) | 0.13 (≈ 0.297 µM) | 0.5 | 0.6 |  | 0.25 (≈ 0.571 µM) | 1 (≈ 2.28 µM) | 4 (≈ 9.13 µM) | ≤ 0.06
